The values below come from patent US7179819B2, “VLA-4 inhibitor compounds” (Daiichi Pharmaceutical Co., Ltd., priority 1999, dated 2007).

The structures appear in SMILES notation.

In the case of `Cc1ccccc1NC(=O)Nc1ccc(CC(=O)N2CCC[C@H]2COc2ccc(C(=O)O)cc2)cc1C` [Compound 83, 4-[1-[3-methyl-4-[N′-(2-methylphenyl)ureido]phenylacetyl]-(2S)-pyrrolidinylmethoxy]benzoic acid], the melting point (in general, the temperature of the solid-liquid transition) was 191 to 193 °C. Consider `O=C(Nc1ccc(CC(=O)N2C[C@@H](F)C[C@H]2COc2ccc(C(=O)O)cc2)cc1)Nc1c(Cl)cccc1Cl` [Compound 87, 4-[1-[4-[N′-(2,6-dichlorophenyl)ureido]phenylacetyl]-(4S)-fluoro-(2S)-pyrrolidinyl]methoxy benzoic acid], for which the melting point was 168 to 172 °C (dec.). As for `COc1cc(CC(=O)N2C[C@@H](F)C[C@H]2COc2ccc(C(=O)O)cc2)ccc1NC(=O)Nc1c(Cl)cccc1Cl` [Compound 88, 4-[1-[4-[N′-(2,6-dichlorophenyl)ureido]-3-methoxyphenylacetyl]-(4S)-fluoro-(2S)-pyrrolindinyl]methoxybenzoic acid], the melting point is 162 to 168 °C (dec.). For the molecule `COc1cc(CC(=O)N2C[C@@H](Cl)C[C@H]2COc2ccc(C(=O)O)cc2)ccc1NC(=O)Nc1ccccc1Br` [Compound 103, 4-[1-[4-[N′-(2-bromophenyl)ureido]-3-methoxyphenylacetyl]-(4S)-chloro-(2S)-pyrrolidinyl]methoxybenzoic acid], the melting point was 127 to 132 °C. For `COc1cc(CC(=O)N2C[C@@H](O)C[C@H]2COc2ccc(C(=O)O)cc2)ccc1NC(=O)Nc1ccccc1C` [Compound 106] the value was 148 to 152 °C (dec.); for `COc1cc(CC(=O)N2C[C@@H](O)C[C@H]2COc2ccc(C(=O)O)cc2)ccc1NC(=O)Nc1ccccc1Cl` [Compound 107, 4-[1-[4-[N′-(2-chlorophenyl)ureido]-3-methoxyphenylacetyl]-(4S)-hydroxy-(2S)-pyrrolidinyl]methoxybenzoic acid], 138 to 142 °C (dec.); for `COc1cc(CC(=O)N2C[C@@H](O)C[C@H]2COc2ccc(C(=O)O)cc2)ccc1NC(=O)Nc1ccccc1Br` [Compound 108], 143 to 151 °C (dec.). The same measure for `COc1cc(CC(=O)N2C[C@H](O)C[C@H]2COc2ccc(C(=O)O)cc2)ccc1NC(=O)Nc1ccccc1Cl` [Compound 109]: 137 to 142 °C; for `COc1cc(CC(=O)N2C[C@H](O)C[C@H]2COc2ccc(C(=O)O)cc2)ccc1NC(=O)Nc1ccccc1C` [Compound 110, 4-[(4R)-hydroxy-1-[3-methoxy-4-[N′-(2-methylphenyl)ureido]phenylacetyl]-(2S)-pyrrolidinylmethoxy]benzoic acid]: 178 to 182 °C; for `COc1cc(CC(=O)N2C[C@@H](Oc3ccc(C(=O)O)cc3)C[C@H]2COc2ccc(C(=O)O)cc2)ccc1NC(=O)Nc1ccccc1C` [Compound 116, 4-[(4S)-(4-carboxyphenoxy)-1-[3-methoxy-4-[N′-(2-methylphenyl)uriedo]phenylacetyl]-(2S)-pyrrolidinylmethoxy]benzoic acid]: 154 to 159 °C. The same measure for `COc1cc(CC(=O)N2C[C@@H](Oc3ccc(C(=O)O)cc3)C[C@H]2COc2ccc(C(=O)O)cc2)ccc1NC(=O)Nc1ccccc1Cl` [Compound 117, 4-[(4S)-(4-carboxyphenoxy)-1-[4-[N′-(2-chlorophenyl)uriedo]-3-methoxyphenylacetyl]-(2S)-pyrrolidinylmethoxy]benzoic acid]: 150 to 153 °C; for `Cc1ccccc1NC(=O)Nc1ccc(CC(=O)N2C[C@@H](Oc3ccc(C(=O)O)cc3)C[C@H]2COc2ccc(C(=O)O)cc2)cc1` [Compound 119, 4-[(4S)-(4-carboxyphenoxy)-1-[4-[N′-(2-methylphenyl)uriedo]phenylacetyl]-(2S)-pyrrolidinylmethoxy]benzoic acid]: 157 to 160 °C. The molecule `COc1cc(CC(=O)N2C[C@@H](Oc3ccc4ncccc4c3)C[C@H]2COc2ccc(C(=O)O)cc2)ccc1NC(=O)Nc1ccccc1Cl` [Compound 121] displayed a melting point of 129 to 133 °C. For `COc1cc(CC(=O)N2C[C@@H](Oc3ccc4ncccc4c3)C[C@H]2COc2ccc(C(=O)O)cc2)ccc1NC(=O)Nc1ccccc1Br` [Compound 122] the value was 149 to 153 °C. For `COc1cc(CC(=O)N2C[C@H](OC)C[C@H]2COc2ccc(C(=O)O)cc2)ccc1NC(=O)Nc1ccccc1C` [Compound 135, 4-[(4R)-methoxy-1-[3-methoxy-4-[N′-(2-methylphenyl)ureido]phenylacetyl]-(2S)-pyrrolidinylmethoxy]benzoic acid] the value was 112 to 115 °C; for `COc1cc(CC(=O)N2C[C@H](OC)C[C@H]2COc2ccc(C(=O)O)cc2)ccc1NC(=O)Nc1ccccc1F` [Compound 136, 4-[1-[4-[N′-(2-fluorophenyl)ureido]-3-methoxyphenylacetyl]-(4R)-methoxy-(2S)-pyrrolidinylmethoxy]benzoic acid], 111 to 116 °C; for `COc1cc(CC(=O)N2C[C@H](OC)C[C@H]2COc2ccc(C(=O)O)cc2)ccc1NC(=O)Nc1ccccc1Br` [Compound 138, 4-[1-[4-[N′-(2-bromophenyl)ureido]-3-methoxyphenylacetyl]-(4R)-methoxy-(2S)-pyrrolidinylmethoxy]benzoic acid], 125 to 130 °C. For `CN[C@@H]1C[C@@H](COc2ccc(C(=O)O)cc2)N(C(=O)Cc2ccc(NC(=O)Nc3ccccc3C)c(OC)c2)C1` [Compound 153, 4-[trans-1-[3-methoxy-4-[N′-(2-methylphenyl)ureido]phenylacetyl]4-methylamino-(2S)-pyrrolidinyl]methoxybenzoic acid] the value was 162 to 164 °C; for `COc1cc(CC(=O)N2C[C@@H](NS(=O)(=O)c3ccc4ccccc4c3)C[C@H]2COc2ccc(C(=O)O)cc2)ccc1NC(=O)Nc1ccccc1Cl` [Compound 161, 4-[cis-1-[4-[N′-(2-chlorophenyl)ureido]-3-methoxylphenylacetyl]-4-(2-naphthalenesulfonamido)-(2S)-pyrrolidinyl]methoxybenzoic acid], 135 to 142 °C. `COc1cc(CC(=O)N2C[C@@H](NS(=O)(=O)c3c(C)cc(C)cc3C)C[C@H]2COc2ccc(C(=O)O)cc2)ccc1NC(=O)Nc1ccccc1Br` [Compound 162]: the melting point was in the range of 130 to 132 °C. The same measure for `COc1cc(CC(=O)N2C[C@@H](NS(C)(=O)=O)C[C@H]2COc2ccc(C(=O)O)cc2)ccc1NC(=O)Nc1ccccc1Br` [Compound 164, 4-[4-methanesulfonamido-1-[4-[N′-(2-bromophenyl)ureido]-3-methoxyphenylacetyl]-(2S)-pyrrolidinyl]methoxybenzoic acid]: 125 to 128 °C. Regarding `COc1cc(CC(=O)N2C3CCCCC3C[C@H]2COc2ccc(C(=O)O)cc2)ccc1NC(=O)Nc1ccccc1C` (stereo partly drawn) [Compound 165, 4-[1-[3-methoxy-4-[N′-(2-methylphenyl)ureido]phenylacetyl]-(2S)-octahydroindolylmethoxy]benzoic acid], the melting point was 130 to 134 °C. The same measure for `COc1cc(CC(=O)N2C3CCCCC3C[C@H]2COc2ccc(C(=O)O)cc2)ccc1NC(=O)Nc1ccccc1Br` (stereo partly drawn) [Compound 167, 4-[1-[4-[N′-(2-bromophenyl)ureido]-3-methoxyphenylacetyl]-(2S)-octahydroindolylmethoxy]benzoic acid]: 118 to 123 °C. The same measure for `COc1cc(CC(=O)N2CCC[C@H]2COC2CCC(C(=O)O)CC2)ccc1NC(=O)Nc1ccccc1C` (stereo partly drawn) [Compound 174, 4-[[1-[3-methoxy-4-[N′(2-methylphenyl)ureido]phenylacetyl]-(2S)-pyrrolidinyl]methoxy]cyclohexanecarboxylic acid]: 110 to 113 °C; for `COc1cc(CC(=O)N2CCC[C@H]2COC2CCC(C(=O)O)CC2)ccc1NC(=O)Nc1ccccc1Cl` (stereo partly drawn) [Compound 175, 4-[[1-[4-[N′-(2-chlorophenyl)ureido]-3-methoxylphenylacetyl]-(2S)-pyrrolidinyl]methoxy]cyclohexanecarboxylic acid]: 111 to 115 °C; for `COc1cc(CC(=O)N2CCC[C@H]2COC2CCC(C(=O)O)CC2)ccc1NC(=O)Nc1ccccc1Br` (stereo partly drawn) [Compound 176, 4-[1-[4-[N′-(2-bromophenyl)ureido]-3-methoxylphenylacetyl]-(2S)-pyrrolidinyl]methoxy cyclohexanecarboxilic acid]: 108 to 111 °C. The same measure for `Cc1ccccc1NC(=O)Nc1ccc(CC(=O)N2CCC[C@H]2COC2CCC(C(=O)O)CC2)cc1` (stereo partly drawn) [Compound 177, 4-[[1-[4-[N′-(2-methylphenyl)ureido]phenylacetyl]-(2S)-pyrrolidinyl]methoxy]cyclohexane carboxylic acid]: 107 to 111 °C; for `COc1cc(CC(=O)N2C3CCCCC3C[C@H]2COC2CCC(C(=O)O)CC2)ccc1NC(=O)Nc1ccccc1Cl` (stereo partly drawn) [Compound 178, cis-4-[1-[4-[N′-(2-chlorophenyl)ureido]-3-methoxylphenylacetyl]-(2S)-octahydroindolylmethoxy]cyclohexanecarboxylic acid]: 120 to 121 °C; for `COc1cc(CC(=O)N2CC[C@H](Oc3ccc(C(=O)O)cc3)C2)ccc1NC(=O)Nc1ccccc1C` [Compound 182, 4-[1-[3-methoxy-4-[N′-(2-methylphenyl)ureido]phenylacetyl]-(3S)-pyrrolidinyloxy]benzoic acid]: 131 to 135 °C. `COc1cc(CC(=O)N2CC[C@H](Oc3ccc(C(=O)O)cc3)C2)ccc1NC(=O)Nc1ccccc1Cl` [Compound 183, 4-[1-[4-[N′-(2-chlorophenyl)ureido]-3-methoxyphenylacetyl]-(3S)-pyrrolidinyloxy]benzoic acid] displayed a melting point of 190 to 193 °C.

In turn, `COc1cc(CC(=O)N2CC[C@H](Oc3ccc(C(=O)O)cc3)C2)ccc1NC(=O)Nc1ccccc1Br` [Compound 184, 4-[1-[4-[N′-(2-bromophenyl)ureido]-3-methoxyphenylacetyl]-(3S)-pyrrolidinyloxy]benzoic acid] yielded a melting point of 173 to 175 °C. With `COc1cc(CC(=O)N2CC[C@@H](Oc3ccc(C(=O)O)cc3)C2)ccc1NC(=O)Nc1ccccc1C` [Compound 185, 4-[1-[3-methoxy-4-[N′-(2-methylphenyl)ureido]phenylacetyl]-(3R)-pyrrolidinyloxy]benzoic acid], the melting point lay within 158 to 162 °C.
